Laboratory results taken from US20170224772A1, “COMPOSITION AND KIT FOR PREVENTION OR TREATMENT OF ARTHRITIS, AND METHOD USING THE SAME” (Samsung Electronics Co., Ltd., priority 2014, published 2017).
Marks after values point to notes of the source that are not given here.

How the values were obtained:
Format in all cases: in vivo, mouse (DBA/1)
[1] = system: Mice in which rheumatoid arthritis was induced; test: Assessment of arthritis severity (score of edema and flare at fore and hind paws); details: 0-4 per leg, maximum 16; after three times of administration; in comparison with negative control group
Experimental: (§1) Chicken type II collagen (Sigma-Aldrich) was mixed with 0.05 M acetic acid at 4° C. to the concentration of 2 mg/ml. The resulting mixture and Freund's complete adjuvant (CFA) (Sigma-Aldrich) were mixed at an equal amount ratio, and then the resulting mixture was homogenized at 30000 rpm for three minutes by using a homogenizer (Polytron PT3100D) to prepare an antigen material for administration. For a first immunization, the antigen material for administration was intradermally injected to a mouse tail (DBA/1 mouse, six weeks old) (Day 1). Three weeks later, the CFA was replaced by Freund's incomplete adjuvant (IFA) (Sigma-Aldrich), and boosting was performed by the same method.
(§2) Mice were divided into five groups, and saline solution, hASCs, and CTLA4Ig-hASC were intravenously injected to mouse tails on Day 63, Day 70, Day 77, and Day 84 after immunization as shown in Table 1 below.
In the mice of Example 1-2, from Day 62 after the immunization, the severity of arthritis at the fore paw and the hind paw was assessed three times per week in a score from 0 point (No arthritis) to 4 point (Severe arthritis) according to the degree of edema and flare. The assessment was performed at each leg with the maximum possible score of 16. The clinical score was measured at each mouse by Day 90 after the immunization. […]

[2] = system: Mice in which rheumatoid arthritis was induced; test: ELISA of anti-mouse type II collagen antibody, C-telopeptide I and C-telopeptide II in serum; details: comparison among negative control and treatment groups
Experimental: as §1, with “method. […]” for “method.”
In the serum obtained in Example 1-2, anti-mouse type II collagen antibody, C-terminal telopeptide of Type I collagen (C-telopeptide I) that was a Type I collagen discharged during osteoclastic bone resorption, and C-terminal telopeptide of Type II collagen (C-telopeptide II) that was a chondrolysis product were detected by ELISA.
Specifically, anti-mouse type II collagen antibody, C-telopeptide I, and C-telopeptide II in the serum were measured by using an anti-mouse type II antibody collagen ELISA kit (Astarte Biologics), RatLap™ EIA kit (Immunodiagnostic Systems Ltd.), and a type II collagen ELISA kit (CUSABIO), respectively. […]

[3] = system: cytokine; test: Multiplex measurement of cytokine concentration in serum
Experimental: as §2
(§3) To verify the variation of cytokine expression according to transplantation of hASC or CTLA4Ig-hASC, the serum, knee extract, splenocytes, and lymph node cells obtained in Example 1-2 were prepared.
(§4) The cytokine concentration in serum, knee extract, and the obtained supernatant of the culture solutions of splenocytes and lymph node cells was measured by using a multiplex cytokine/chemokine kit (Milliplex MAP mouse cytokine/chemokine kit, Millipore) by following the protocol provided by the manufacturer. As cytokines, tumor necrosis factor (TNF)-αinterferon (IFN)-α, interleukin (IL)-1α, IL-1β, IL-2, IL-4, IL-6, IL-10, IL-12p70, IL-15, IL-17, keratinocyte-derived chemokine (KC), monocyte chemotactic protein (MCP)-1, macrophage inflammatory protein (MIP)-2, and regulated-upon-activation normal T-cell expressed and secreted (RANTES) were measured.
(§5) The cytokine concentration (pg/ml) in the splenocyte culture medium that was cultured in the presence of Type II collagen, ConA, an LPS is shown in Tables 4 to 6, respectively. The cytokine concentration (pg/ml) in the lymph node cell culture solution that was cultured in the presence of ConA is shown in Table 7.
(§6) The data obtained from each group was compared by performing a Kruskal Wallis test (†: P<0.05) or a (Mann-Whitney U test) (*: significant difference in comparison with the negative control group (p<0.05)).

[4] = system: cytokine; test: Multiplex measurement of cytokine concentration in knee extract
Experimental: as §2, §3, §4, §5, §6

[5] = system: cytokine; test: Cytokine concentration in splenocyte culture medium, cultured in the presence of Type II collagen; details: Type II collagen 100 μg/ml, 48 hours
Experimental: as §2, §3
(§7) Splenocytes of each group were separated. 2.5×10^5/well of splenocytes cultured in 96-well plate (Nunc) in a final volume of 200 μl including or not including 100 μg/ml of Type II collagen (Sigma Aldrich), 2.5 μg/ml of concanavalin A (ConA) (Sigma Aldrich), and 2.5 μg/ml of lipopolysaccharide (LPS) (Sigma Aldrich). The cells were incubated in humidified air at 37° C. for 48 hours. Then, the supernatant of the splenocyte culture medium was obtained and stored at −70° C. By the same method, lymph node cells were cultured in a culture medium including ConA, and the supernatant of lymph node cell culture solution was obtained.
as §4
as §5, with “7. […]” for “7.”

[6] = system: cytokine; test: Cytokine concentration in splenocyte culture medium, cultured in the presence of ConA; details: ConA 2.5 μg/ml, 48 hours
Experimental: as §2, §3, §7, §4, §5, §6

[7] = system: cytokine; test: Cytokine concentration in splenocyte culture medium, cultured in the presence of LPS; details: LPS 2.5 μg/ml, 48 hours
Experimental: as §2, §7, §4, §6

[8] = system: cytokine; test: Cytokine concentration in lymph node cell culture solution, cultured in the presence of ConA
Experimental: as §2, §3
Splenocytes of each group were separated. 2.5×10^5/well of splenocytes cultured in 96-well plate (Nunc) in a final volume of 200 μl including or not including 100 μg/ml of Type II collagen (Sigma Aldrich), 2.5 μg/ml of concanavalin A (ConA) (Sigma Aldrich), and 2.5 μg/ml of lipopolysaccharide (LPS) (Sigma Aldrich). […]
as §4, with “measured. […]” for “measured.”

[9] = system: Mice in which rheumatoid arthritis was induced; test: Histopathological assessment of knee cartilage (H&E, Safranin O); details: H&E and Safranin O, Week 13 after first immunization
Text: as §2
(§8) Knee cartilage tissues were stained to investigate the degree of cartilage injury and bone injury by rheumatoid arthritis, and micro-computed tomography images were obtained to verify morphologic defects in paw joints.
In Week 13 after the first immunization, knee cartilage tissues were obtained from the animals of Example 1-2. The obtained knee cartilage tissues were fixed by using 10% (v/v) neutral buffered formalin (Sigma-Aldrich), and the resulting solution was stirred by using a rapid decalcifier (Thermo Scientific) for 24 hours to decalcify. When an osseous tissue was easily cut by a razor, it was assumed that the tissue was completely decalcified. The decalcified osseous tissue was dehydrate and embedded in paraffin. To assess histopathological injury, the paraffin-embedded tissue was cut into 4 μm-thick slices, and the paraffin was removed from the slices by using xylene. Then, the slices were rehydrated by using a graded alcohol, and stained by using hematoxylin and eosin (H&E) (DAKO) and Safranin O (IHC World). […]

[10] = system: Mice in which rheumatoid arthritis was induced; test: Micro-CT verification of morphologic defects in paw joints; details: score 0-4
Text: as §2, §8
To verify morphological defects in paw joints, the mice paw obtained in Example 1-2 were fixed by using 4%(v/v) formalin (Sigma-Aldrich), and images of the mouse paws were obtained by using Inveon Preclinical CT (Siemens Healthcare) that is a micro-CT scanner at 40 μm of thickness, 0.6 second of exposure time, 70 keV of […] energy, and 400 μA of current. The images were reconstructed into three-dimensional images by using IRW software (Siemens Healthcare).
The data were compared among the groups by performing an ANOVA and then Tukey's multiple comparison tests. A significant difference in comparison with the negative control group was marked as “*” (p<0.05).

SMILES: CN(Cc1cnc2nc(N)nc(N)c2n1)c1ccc(C(=O)N[C@@H](CCC(=O)O)C(=O)O)cc1 [MTX, methotrexate]
- arthritis severity score [1]: a pattern that was similar to that of the negative control group
- concentration of C-telopeptide I in serum [2]: not significantly different
- IL-6 concentration [3]: 161.10 ± 59.69 pg/mL
- MIP-2 concentration [3]: 17.36 ± 8.79* pg/ml
- TNF-α concentration [3]: 5.22 ± 1.37 pg/mL
- IL-1β concentration [4]: 4.54 ± 2.88 pg/mL
- IL-6 concentration [4]: 19.37 ± 11.87 pg/mL
- KC concentration [4]: 305.82 ± 147.86 pg/mL
- MIP-2 concentration [4]: 50.36 ± 19.78 pg/mL
- RANTES concentration [4]: 0.20 ± 0.07* pg/ml
- IL-10 concentration [5]: 3.75 ± 0.89 pg/mL
- IL-17 concentration [5]: 4.73 ± 2.01 pg/mL
- MCP-1 concentration [5]: 591.43 ± 222.2 pg/mL
- IL-1α concentration [6]: 21.02 ± 3.77 pg/mL
- IL-6 concentration [6]: 279.78 ± 71.12 pg/mL
- IL-10 concentration [6]: 80.76 ± 23.19 pg/mL
- IL-17 concentration [6]: 1345.14 ± 590.38 pg/mL
- KC concentration [6]: 10.78 ± 1.86 pg/mL
- MCP-1 concentration [6]: 549.99 ± 220.33 pg/mL
- IL-1α concentration [7]: 112.01 ± 27.82 pg/mL
- IL-4 concentration [7]: 0.37 ± 0.24 pg/mL
- IL-6 concentration [7]: 4676.79 ± 1097.10 pg/mL
- KC concentration [7]: 199.78 ± 50.25 pg/mL
- MCP-1 concentration [7]: 250.79 ± 87.01 pg/mL
- MIP-2 concentration [7]: 2022.27 ± 409.37 pg/mL
- RANTES concentration [7]: 128.44 ± 24.46 pg/mL
- TNF-α concentration [7]: 90.65 ± 20.41 pg/mL
- IL-10 concentration [8]: 23.11 ± 4.08 pg/mL
- destruction of the joint cartilage [9]: severely damaged
- mice showing a severe morphological defect in the paw joints [10]: four mice out of the seven mice
